Laboratory results taken from patent US6495683B2, “4-oxo-4,7-dihydro-thieno[2,3-b]pyridine-5-carboxamides as antiviral agents” (Pharmacia and Upjohn Company, priority 1999, dated 2002).
Read-outs that look alike come from different tables or passages of the source.

Columns and labels:
[1] = target: T1, HCMV polymerase (Human cytomegalovirus, UniProt P08546); experiment: biochemical; settings: modified SPA assay: compounds diluted in 100% DMSO, 4.5 mM DTT in polymerase buffer; read-out: polymerase IC50 (μM) HCMV
T1 construct: made in house; host or cells: recombinant baculovirus-infected SF-9 cells
T1 sequence (P08546 whole entry): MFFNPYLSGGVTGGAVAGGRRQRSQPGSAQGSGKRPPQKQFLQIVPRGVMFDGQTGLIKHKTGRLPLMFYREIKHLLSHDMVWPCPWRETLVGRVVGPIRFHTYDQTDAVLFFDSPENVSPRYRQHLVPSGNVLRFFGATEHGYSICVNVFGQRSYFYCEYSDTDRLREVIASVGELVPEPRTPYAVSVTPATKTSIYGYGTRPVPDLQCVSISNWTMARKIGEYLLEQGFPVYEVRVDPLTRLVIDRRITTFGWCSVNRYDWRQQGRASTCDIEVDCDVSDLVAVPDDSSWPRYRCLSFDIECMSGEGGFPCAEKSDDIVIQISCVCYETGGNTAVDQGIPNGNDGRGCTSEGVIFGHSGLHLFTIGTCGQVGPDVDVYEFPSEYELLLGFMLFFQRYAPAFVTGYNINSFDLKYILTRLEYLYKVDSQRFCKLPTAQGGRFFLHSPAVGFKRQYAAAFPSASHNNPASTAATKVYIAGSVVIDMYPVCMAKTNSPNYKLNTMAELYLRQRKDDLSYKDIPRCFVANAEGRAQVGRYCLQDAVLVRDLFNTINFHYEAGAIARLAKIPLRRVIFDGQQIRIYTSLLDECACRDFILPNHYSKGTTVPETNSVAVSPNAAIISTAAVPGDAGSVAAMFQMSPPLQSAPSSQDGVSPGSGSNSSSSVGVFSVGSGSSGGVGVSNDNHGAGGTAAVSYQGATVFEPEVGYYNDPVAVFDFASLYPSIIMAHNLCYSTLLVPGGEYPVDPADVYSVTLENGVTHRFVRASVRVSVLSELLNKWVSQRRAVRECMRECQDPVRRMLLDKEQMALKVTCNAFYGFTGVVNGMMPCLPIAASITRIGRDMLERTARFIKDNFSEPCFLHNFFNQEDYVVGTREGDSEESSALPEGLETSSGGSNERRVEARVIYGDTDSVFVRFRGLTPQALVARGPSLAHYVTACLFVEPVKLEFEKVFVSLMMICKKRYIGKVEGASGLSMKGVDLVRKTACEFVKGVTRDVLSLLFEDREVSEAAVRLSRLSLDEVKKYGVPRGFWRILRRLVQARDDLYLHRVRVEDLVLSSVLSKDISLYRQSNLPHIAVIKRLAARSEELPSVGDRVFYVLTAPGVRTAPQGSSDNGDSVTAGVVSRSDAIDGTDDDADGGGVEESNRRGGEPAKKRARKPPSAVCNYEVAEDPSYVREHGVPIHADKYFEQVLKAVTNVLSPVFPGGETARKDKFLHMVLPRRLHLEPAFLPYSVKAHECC
Experimental: The HCMV polymerase assay is performed using a scintillation proximity assay (SPA) as described in several references, such as N. D. Cook, et al., Pharmaceutical Manufacturing International, pages 49-53 (1992); K. Takeuchi, Laboratory Practice, September issue (1992); U.S. Pat. No. 4,568,649 (1986); which are incorporated by reference herein. Reactions are performed in 96-well plates. The assay is conducted in 100 μl volume with 5.4 mM HEPE (pH 7.5), 11.7 mM KCl, 4.5 mM MgCl2, 0.36 mg/ml BSA, and 90 nM ^3H-dTTP. Assays are run with and without CHAPS, (3-[(3-cholamidopropyl)-dimethylammonio]-1-propane-sulfonate) at a final concentration of 2 mM. HCMV polymerase is diluted in enzyme dilution buffer containing 50% glycerol, 250 mM NaCl, 10 mM HEPES (pH 7.5), 100 μg/ml BSA, and 0.01% sodium azide. The HCMV polymerase, which is expressed in recombinant baculovirus-infected SF-9 cells and purified according to literature procedures, is added at 10% (or 10 μl) of the final reaction volume, i.e., 100 μl. Compounds are diluted in 50% DMSO and 10 μl are added to each well. Control wells contain an equivalent concentration of DMSO. Unless noted otherwise, reactions are initiated via the addition of 6 nM biotinylated poly(dA)-oligo(dT) template/primer to reaction mixtures containing the enzyme, substrate, and compounds of interest. Plates are incubated in a 25 C or 37 C H2O bath and terminated via the addition of 40 μl/reaction of 0.5 M EDTA (pH 8) per well. Reactions are terminated within the time-frame during which substrate incorporation is linear and varied depending upon the enzyme and conditions used, i.e., 30 min. for HCMV polymerase. Ten μl of streptavidin-SPA beads (20 mg/ml in PBS/10% glycerol) are added following termination of the reaction. Plates are incubated 10 min. at 37 ° C., then equilibrated to room temperature, and counted on a Packard Topcount. Linear regressions are performed and IC50's are calculated using computer software.
A modified version of the above HCMV polymerase assay is performed as described above, but with the following changes: Compounds are diluted in 100% DMSO until final dilution into assay buffer. In the previous assay, compounds are diluted in 50% DMSO. 4.5 mM dithiothreotol (DTT) is added to the polymerase buffer.

[2] = target: HSV polymerase (Human herpesvirus 1, UniProt P04293); experiment: biochemical
HSV polymerase, sequence (P04293 whole entry): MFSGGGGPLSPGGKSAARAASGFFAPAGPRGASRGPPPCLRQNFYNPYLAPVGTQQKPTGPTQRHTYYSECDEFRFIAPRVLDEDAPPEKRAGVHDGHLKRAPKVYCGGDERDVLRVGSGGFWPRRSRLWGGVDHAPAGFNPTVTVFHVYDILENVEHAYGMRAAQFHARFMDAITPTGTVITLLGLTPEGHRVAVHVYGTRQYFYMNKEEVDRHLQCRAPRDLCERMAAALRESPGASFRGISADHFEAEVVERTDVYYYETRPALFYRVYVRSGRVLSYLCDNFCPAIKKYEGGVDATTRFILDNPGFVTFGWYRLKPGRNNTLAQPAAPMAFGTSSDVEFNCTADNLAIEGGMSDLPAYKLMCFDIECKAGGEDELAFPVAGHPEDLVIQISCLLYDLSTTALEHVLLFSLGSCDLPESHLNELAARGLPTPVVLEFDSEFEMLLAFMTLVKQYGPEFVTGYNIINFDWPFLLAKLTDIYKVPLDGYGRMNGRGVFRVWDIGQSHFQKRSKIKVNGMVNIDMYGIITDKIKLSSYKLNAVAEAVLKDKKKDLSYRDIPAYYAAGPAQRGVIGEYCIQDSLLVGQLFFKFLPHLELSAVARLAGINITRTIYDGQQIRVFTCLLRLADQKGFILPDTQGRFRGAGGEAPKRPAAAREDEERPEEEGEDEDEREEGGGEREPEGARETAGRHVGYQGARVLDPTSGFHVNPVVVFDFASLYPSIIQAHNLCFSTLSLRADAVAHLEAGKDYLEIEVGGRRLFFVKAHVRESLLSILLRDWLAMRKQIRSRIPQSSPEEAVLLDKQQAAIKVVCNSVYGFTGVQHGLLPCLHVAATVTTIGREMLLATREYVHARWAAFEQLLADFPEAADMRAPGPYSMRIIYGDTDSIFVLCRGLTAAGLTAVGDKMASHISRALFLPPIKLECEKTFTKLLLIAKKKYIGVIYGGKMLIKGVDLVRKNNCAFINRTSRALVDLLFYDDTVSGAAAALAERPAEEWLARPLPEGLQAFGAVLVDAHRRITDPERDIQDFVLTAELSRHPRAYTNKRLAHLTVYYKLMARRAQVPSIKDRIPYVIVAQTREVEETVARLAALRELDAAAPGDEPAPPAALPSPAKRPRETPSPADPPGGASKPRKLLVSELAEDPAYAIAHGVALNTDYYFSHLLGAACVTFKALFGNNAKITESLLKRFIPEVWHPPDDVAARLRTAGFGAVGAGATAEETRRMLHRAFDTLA

[3] = target: VZV polymerase (Varicella-zoster virus, UniProt P09252); experiment: biochemical; settings: read-out: polymerase IC50 (μM) VZV
VZV polymerase, sequence (P09252 whole entry): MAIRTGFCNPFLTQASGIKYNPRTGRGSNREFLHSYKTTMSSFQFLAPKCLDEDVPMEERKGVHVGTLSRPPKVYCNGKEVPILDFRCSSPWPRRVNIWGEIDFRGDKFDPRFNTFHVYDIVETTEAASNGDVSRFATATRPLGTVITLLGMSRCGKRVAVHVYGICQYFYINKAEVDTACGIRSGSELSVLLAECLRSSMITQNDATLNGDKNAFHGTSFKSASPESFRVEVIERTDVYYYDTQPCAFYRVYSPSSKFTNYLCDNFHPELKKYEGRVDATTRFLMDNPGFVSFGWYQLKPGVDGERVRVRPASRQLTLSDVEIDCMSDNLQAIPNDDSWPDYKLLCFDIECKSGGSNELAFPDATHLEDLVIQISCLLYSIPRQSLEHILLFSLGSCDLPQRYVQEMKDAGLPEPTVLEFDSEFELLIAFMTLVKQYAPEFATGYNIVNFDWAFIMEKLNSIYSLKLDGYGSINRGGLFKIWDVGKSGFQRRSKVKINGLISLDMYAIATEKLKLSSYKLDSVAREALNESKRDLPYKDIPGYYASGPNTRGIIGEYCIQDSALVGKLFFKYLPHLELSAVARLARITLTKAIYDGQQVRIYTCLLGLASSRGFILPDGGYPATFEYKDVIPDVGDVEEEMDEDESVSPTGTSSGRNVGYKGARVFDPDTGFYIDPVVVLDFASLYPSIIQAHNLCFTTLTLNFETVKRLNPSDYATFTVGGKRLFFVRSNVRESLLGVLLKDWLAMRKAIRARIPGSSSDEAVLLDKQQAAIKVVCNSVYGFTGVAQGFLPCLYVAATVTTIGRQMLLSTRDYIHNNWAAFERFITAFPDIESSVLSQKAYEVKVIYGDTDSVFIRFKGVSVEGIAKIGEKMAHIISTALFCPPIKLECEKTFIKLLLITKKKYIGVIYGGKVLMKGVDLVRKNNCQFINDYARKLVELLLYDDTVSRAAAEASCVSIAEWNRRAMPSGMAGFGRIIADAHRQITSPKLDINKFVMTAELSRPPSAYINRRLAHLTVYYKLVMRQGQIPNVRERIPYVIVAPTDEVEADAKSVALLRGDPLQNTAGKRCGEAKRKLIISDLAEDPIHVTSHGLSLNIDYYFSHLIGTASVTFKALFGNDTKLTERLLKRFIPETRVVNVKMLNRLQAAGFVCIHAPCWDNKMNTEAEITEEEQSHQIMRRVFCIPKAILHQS

[4] = read-out: polymerase IC50 (μM) HSV

SMILES	IC50 [1]	IC50 [2, 4]	IC50 [3]	melting point	IC50 [2]
O=C(NCc1ccc(Cl)cc1)c1cnc2sc(CCCO)cc2c1O [Example 8, N-(4-Chlorobenzyl)4-hydroxy-2-(3-hydroxpropyl)thieno[2,3-b]pyridine-5-carboxamide]	2.2 µM	0.91 µM	0.55 µM	185 to 186 °C	
CCn1cc(C(=O)NCc2ccc(Cl)cc2)c(=O)c2cc(C#CCCO)sc21 [Example 15, N-(4-Chlorobenzyl)-7-ethyl-2-(4-hydroxy-1-butynyl)-4-oxo-4,7-dihydrothieno[2,3-b]pyridine-5-carboxamide]	4.7 µM	3.2 µM	1.9 µM		
Cn1cc(C(=O)NCc2ccc(Cl)cc2)c(=O)c2cc(CN3CCOCC3)sc21 [Example 36, N-(4-Chlorobenzyl)-7-methyl-2-(4-morpholinylmethyl)-4-oxo-4,7-dihydrothieno[2,3-b]pyridine-5-carboxamide]	1.8 µM		0.77 µM		1.2 µM
O=C(NCc1ccc(Cl)cc1)c1cnc2sc(C#CCO)cc2c1O [Example 5, N-(4-Chlorobenzyl)-4-hydroxy-2-(3-hydroxy-1-propynyl)thieno[2,3-b]pyridine-5-carboxamide]	2.5 µM	0.88 µM	0.6 µM	233 to 236 °C	
